Data taken from paper PMC10790229 (Journal of medicinal chemistry, 2023).
Like-named read-outs stand apart in the source and are kept apart here.

Columns and labels:
[1] = Cytotoxicity in uninfected MT-4 cells; type: cell-based; settings: human
HIV-1 IIIB = test: Anti-HIV-1 activity in MT-4 cells; type: cell-based; settings: for EC50: Human immunodeficiency virus 1, IIIB, MT4, read-out: EC50 IIIB; for fold improvement of anti-HIV-1 potency over 11L / fold improvement of anti-HIV-1 potency over PF74 / SI IIIB (CC50/EC50): HIV-1 IIIB; for fold improvement of anti-HIV-1 potency over 11L / fold improvement of anti-HIV-1 potency over PF74 / Ratio IIIB(EC50)/ROD(EC50) / SI IIIB (CC50/EC50): MT-4 cells
in vitro [2] = type: in vitro ADME; settings: human, plasma
[3] = human
[4] = system: p24 content of produced pseudoviruses; test: ELISA-based quantification of capsid; type: cell-based, HIV-1; settings: compound at 10× over EC50
HIV-2 ROD = test: Anti-HIV-2 activity in MT-4 cells; type: cell-based
[5] = target: reverse transcriptase (RT) (Human immunodeficiency virus type 1 group M subtype B, UniProt P04585); test: In vitro reverse transcriptase inhibition assay; type: biochemical, HIV-1; settings: 900 nM
in vitro [6] = settings: human, microsomes
[7] = target: monomeric HIV-1 CA NL4.3 protein (Human immunodeficiency virus type 1 group M subtype B, UniProt P12493); test: SPR binding to monomeric HIV-1 CA; settings: for Residence Time Monomer / koff Monomer: SPR, CA monomer
[8] = system: hexameric HIV-1 CA NL4.3 protein; test: SPR binding to disulfide-stabilized hexameric HIV-1 CA
[9] = target: hexameric HIV-1 CA NL4.3 protein (Human immunodeficiency virus type 1, UniProt P12493); test: as above; settings: for Residence Time Hexamer / koff Hexamer: CA hexamer; for Kd: read-out: KD Hexamer, CA hexamer
[10] = target: CPSF6 peptide binding to hexameric HIV-1 CA NL4.3 protein (Human immunodeficiency virus type 1, UniProt P12493); test: SPR-based CPSF6 peptide competition assay; settings: read-out: IC50 CPSF6 peptide competition, CA hexamer
HIV-1 CA-NC = HIV-1 CA-NC (Human immunodeficiency virus type 1 group M subtype B, UniProt P12493); test: FRET-based in vitro CA assembly assay; type: biochemical; settings: 50 μM compound
HIV-1 = type: cell-based; settings: 1 μM compound; DMSO = 100
[11] = In vivo pharmacokinetic study in SD rats; settings: Sprague-Dawley, rat
MT-4 cells = test: Cytotoxicity in uninfected MT-4 cells; type: cell-based
[12] = in vivo, cited from earlier work
[13] = Human immunodeficiency virus 2, MT4, read-out: EC50 ROD
[14] = read-out: EC50 ROD, 50% protection of MT-4 cells against HIV-induced cytotoxicity, HIV-2 ROD

COc1ccc(N(C)C(=O)[C@H](Cc2ccccc2)NC(=O)CN2CCN(S(=O)(=O)c3ccc(N)cc3)CC2=O)cc1 [11L, reference compound]
CC50 [1]: 198 ± 6.85 µM
EC50 (HIV-1 IIIB): 280 ± 90 nM

COc1ccc(-n2c([C@H](Cc3cc(F)cc(F)c3)NC(=O)CN3CCN(S(=O)(=O)c4ccc(N)cc4)CC3=O)nc3ccccc3c2=O)cc1 [12a2, (S)-2-(4-((4-Aminophenyl)sulfonyl)-2-oxopiperazin-1-yl)-N-(2-(3,5-difluorophenyl)-1-(3-(4-methoxyphenyl)-4-oxo-3,4-dihydroquinazolin-2-yl)ethyl)acetamide]
remaining at 2 h (in vitro [2]): 110%
CC50 [1]: > 178 µM
intrinsic CL in microsomes, CLint(mic) [3]: 143.4 mL/min/kg
p24 content of the produced virus [4]: did not change significantly
SI ROD (CC50/EC50) (HIV-2 ROD; HIV-2 ROD, MT-4 cells): >1736.11
fold improvement of anti-HIV-2 potency over PF74 (HIV-2 ROD; HIV-2 ROD, MT-4 cells): approximately 40 fold
EC50 (HIV-2 ROD; [13]): 100 ± 10 nM
RT activity compared to RT control [5]: about 80%
fold improvement of anti-HIV-1 potency over 11L (HIV-1 IIIB): 2.5 fold
fold improvement of anti-HIV-1 potency over PF74 (HIV-1 IIIB): 7.3 fold
EC50 (HIV-1 IIIB): 110 ± 30 nM
Ratio IIIB(EC50)/ROD(EC50) (HIV-1 IIIB): 1.10
CLint scaled (in vitro [6]): 129 mL/min/kg
half-life (in vitro [6]): 9.7 min
microsomal CLint (in vitro [6]): 143 µL/min/mg
remaining at 1 h (in vitro [6]; % Remaining (NCF = 60 min)): 107%
remaining at 1 h (in vitro [6]; % Remaining (T = 60 min)): 1.1%
Kd [7]: 838 ± 170 nM
Residence Time Monomer [7]: 0.203 min
koff Monomer [7]: 0.082 ± 0.011 s⁻¹
Ratio KD Monomer/KD Hexamer [8]: 1.490
fold increase in affinity toward the CA hexamer compared to 11L [9]: 2 fold
Residence Time Hexamer [9]: 0.321 min
koff Hexamer [9]: 0.052 ± 0.005 s⁻¹
Kd [9]: 561 ± 31 nM
IC50 [10]: 189 ± 89.8 nM
effect on CA assembly (HIV-1 CA-NC): enhance CA assembly
% Infection Early Stage (HIV-1): 0.092 ± 0.013%
% Infection Late Stage (HIV-1): 0.019 ± 0.002%

Nc1ccc(S(=O)(=O)N2CCN(CC(=O)N[C@@H](Cc3cc(F)cc(F)c3)c3nc4ccccc4c(=O)n3-c3ccc(S(=O)(=O)N4CCOCC4)cc3)C(=O)C2)cc1 [21a2, (S)-2-(4-((4-Aminophenyl)sulfonyl)-2-oxopiperazin-1-yl)-N-(2-(3,5-difluorophenyl)-1-(3-(4-(morpholinosulfonyl)phenyl)-4-oxo-3,4-dihydroquinazolin-2-yl)ethyl)acetamide]
remaining at 2 h (in vitro [2]): 102%
CC50 [1]: > 152 µM
intrinsic CL in microsomes, CLint(mic) [3]: 312.7 mL/min/kg
p24 content of the produced virus [4]: did not change significantly
SI ROD (CC50/EC50) (HIV-2 ROD; HIV-2 ROD, MT-4 cells): >1923.08
EC50 (HIV-2 ROD; [13]): 80 ± 10 nM
RT activity compared to RT control [5]: about 80%
SI IIIB (CC50/EC50) (HIV-1 IIIB): >1329.79
fold improvement of anti-HIV-1 potency over 11L (HIV-1 IIIB): 2.5 fold
fold improvement of anti-HIV-1 potency over PF74 (HIV-1 IIIB): 7.3 fold
EC50 (HIV-1 IIIB): 110 ± 50 nM
Ratio IIIB(EC50)/ROD(EC50) (HIV-1 IIIB): 1.38
CLint scaled (in vitro [6]): 282 mL/min/kg
half-life (in vitro [6]): 4.4 min
microsomal CLint (in vitro [6]): 313 µL/min/mg
remaining at 1 h (in vitro [6]; % Remaining (NCF = 60 min)): 94.4%
remaining at 1 h (in vitro [6]; % Remaining (T = 60 min)): 0.2%
Kd [7]: 244 ± 37 nM
Residence Time Monomer [7]: 0.417 min
koff Monomer [7]: 0.040 ± 0.007 s⁻¹
Ratio KD Monomer/KD Hexamer [8]: 1.230
Residence Time Hexamer [9]: 1.389 min
koff Hexamer [9]: 0.012 ± 0.000 s⁻¹
Kd [9]: 199 ± 19 nM
IC50 [10]: 163 ± 47.1 nM
effect on CA assembly (HIV-1 CA-NC): enhance CA assembly
AUC ([11]; iv, 2 mg/kg): 574 ± 151 ng·h/mL
AUC(0-t) ([11]; iv, 2 mg/kg): 572 ± 151 ng·h/mL
C0 ([11]; iv, 2 mg/kg): 2980 ± 545 ng/mL
Cmax ([11]; iv, 2 mg/kg): 1650 ± 361 ng/mL
MRT ([11]; iv, 2 mg/kg): 0.284 ± 0.0468 h
Tmax ([11]; iv, 2 mg/kg): 4.98 min
Vd ([11]; iv, 2 mg/kg): 2.58 ± 0.707 L/kg
half-life ([11]; iv, 2 mg/kg): 30.8 ± 10.6 min
clearance ([11]; iv, 2 mg/kg, CL (i.v.), SD rat, i.v. 2 mg/kg): 60.5 mL/min/kg
AUC ([11]; po, 20 mg/kg): 37.3 ng·h/mL
AUC(0-t) ([11]; po, 20 mg/kg): 10.8 ± 17.4 ng·h/mL
Cmax ([11]; po, 20 mg/kg): 6.58 ± 8.24 ng/mL
MRT ([11]; po, 20 mg/kg): 3.03 h
Tmax ([11]; po, 20 mg/kg): 20 ± 8.64 min
half-life ([11]; po, 20 mg/kg): 121 min
% Infection Early Stage (HIV-1): 0.109 ± 0.046%
% Infection Late Stage (HIV-1): 0.017 ± 0.003%

Nc1ccc(S(=O)(=O)N2CCN(CC(=O)N[C@@H](Cc3ccccc3)c3nc4ccccc4c(=O)n3-c3ccc(S(=O)(=O)N4CCS(=O)(=O)CC4)cc3)C(=O)C2)cc1 [21b1, (S)-2-(4-((4-Aminophenyl)sulfonyl)-2-oxopiperazin-1-yl)-N-(1-(3-(4-((1,1-dioxidothiomorpholino)sulfonyl)phenyl)-4-oxo-3,4-dihydroquinazolin-2-yl)-2-phenylethyl)acetamide]
CC50 (MT-4 cells): > 150 µM
SI ROD (CC50/EC50) (HIV-2 ROD; HIV-2 ROD, MT-4 cells): >277.78
EC50 (HIV-2 ROD; [14]): 540 ± 130 nM
SI IIIB (CC50/EC50) (HIV-1 IIIB): >75.76
Ratio IIIB(EC50)/ROD(EC50) (HIV-1 IIIB): 3.67

Nc1ccc(S(=O)(=O)N2CCN(CC(=O)N[C@@H](Cc3cc(F)cc(F)c3)c3nc4ccccc4c(=O)n3-c3ccc(S(=O)(=O)N4CCS(=O)(=O)CC4)cc3)C(=O)C2)cc1 [21b2, (S)-2-(4-((4-Aminophenyl)sulfonyl)-2-oxopiperazin-1-yl)-N-(2-(3,5-difluorophenyl)-1-(3-(4-((1,1-dioxidothiomorpholino)sulfonyl)-phenyl)-4-oxo-3,4-dihydroquinazolin-2-yl)ethyl)acetamide]
CC50 (MT-4 cells): > 144 µM
SI ROD (CC50/EC50) (HIV-2 ROD; HIV-2 ROD, MT-4 cells): >240.38
EC50 (HIV-2 ROD; [14]): 600 ± 150 nM
SI IIIB (CC50/EC50) (HIV-1 IIIB): >95.42
Ratio IIIB(EC50)/ROD(EC50) (HIV-1 IIIB): 2.52

CC(C)(C#Cc1ccc(-c2ccc(Cl)c3c(NS(C)(=O)=O)nn(CC(F)(F)F)c23)c([C@H](Cc2cc(F)cc(F)c2)NC(=O)Cn2nc(C(F)(F)F)c3c2C(F)(F)[C@@H]2C[C@H]32)n1)S(C)(=O)=O [LEN, Lenacapavir]
oral half-life T1/2 ([12]; po): 10 to 12 days
subcutaneous half-life T1/2 ([12]; sc): 8–12 weeks

(S)-2-(4-((4-Aminophenyl)sulfonyl)-2-oxopiperazin-1-yl)-N-(1-(3-(4-(morpholinosulfonyl)phenyl)-4-oxo-3,4-dihydroquinazolin-2-yl)-2-phenylethyl)acetamide [21a1]
CC50 (MT-4 cells): > 159 µM
SI ROD (CC50/EC50) (HIV-2 ROD; HIV-2 ROD, MT-4 cells): >1562.50
EC50 (HIV-2 ROD; [14]): 100 ± 10 nM
SI IIIB (CC50/EC50) (HIV-1 IIIB): >1041.67
Ratio IIIB(EC50)/ROD(EC50) (HIV-1 IIIB): 1.50
